Measurements taken from patent US20220362168A1, “ADMINISTRATION REGIMES OF CANNABINOIDS IN COMBINATION WITH CHEMOTHERAPEUTICS AGAINST CANCER” (priority 2019, published 2022).
Entries after “also recorded” stand apart in the source; their conditions may differ.

Legend:
pERK = pERK western blotting relative to GAPDH (Example 3); type: cell-based; conditions: 100 nM, 1 μM or 10 μM, 48 h, FIG. 2, higher levels of CBD
Experimental: An adenocarcinoma cell line, growing exponentially, was reset at a concentration of 1×10^4/ml and allowed to adhere overnight. Cannabidiol (CBD) was added at 100 nM, 1 μM, or 10 μM, and cells were harvested for standard western blotting techniques after 48 h. Immunoprobing was performed using anti-pERK antibodies, and the densities of each band determined. These values were then expressed relative to a GAPDH loading control.

[1] = system: adenocarcinoma cancer cell line; test: Cell viability by cell counting with trypan blue (Example 2); type: cell-based; conditions: 0.1, 1 or 10 μM, 48 h, FIG. 1
Excerpt: An adenocarcinoma cancer cell line, growing exponentially, was reset at a concentration of 1×10^4/ml and allowed to adhere overnight.

tumour = test: Scans and examination of tumour in individual patients; type: in vivo, human
Experimental: (§1) The majority of the patients were assessed using a circulating tumour cell test before and after treatment, since this is cheaper than carrying out repeated scans. A number of patients however, as a matter of a normal treatment course, had relevant scans.
Clear objective evidence of potential efficacy was sought where no other treatment option was available. The most impressive case was a patient with an anaplastic ependymoma, a very rare brain tumour. The patient had had all standard treatments, surgery on two occasions followed by chemotherapy and conformal photon radiotherapy. No further treatment options were available to them when treatment on CBD started.
Another impressive case was a patient with progressive tanycytic ependymoma Grade 2, treated with biopsy and radical radiotherapy for two years. They refused chemotherapy, and had no further treatment options. They started on pharmaceutical-grade synthetic CBD a year after radiotherapy ended, at a dose of 10 drops twice a day, three days on and three days off (10 mg). Prior to this they had been taking, for some time, metformin, mebendazole, doxycycline and atorvastatin from an oncology clinic in Central London.
At that point the patient stopped taking pharmaceutical-grade synthetic CBD and switched to Cannabis oil extract obtained from an internet website. […] They have since restarted pharmaceutical-grade synthetic CBD and throughout continued to take the metformin, atorvastatin, doxycycline and mebendazole. So, the only change had been stopping the pharmaceutical-grade synthetic CBD and switching to Cannabis oil extract obtained on the Internet.

[2] = system: circulating tumour cells (CTCs); test: Circulating tumour cell test before and after treatment; type: in vivo, human; conditions: for Circulating tumour cells (CTCs): CBD only
Experimental: as §1

cancer patients = test: Clinical outcome of 119 cancer patients given synthetic pharmaceutical-grade CBD; type: in vivo, human; conditions: for Extended median survival / Stable disease / Died / No effect/result / Slowed progression / Tumour free: number of patients
Experimental: Patients were given synthetic, pharmaceutical-grade CBD (STI Pharmaceuticals), registered under the Pharmaceutical Specials scheme in oily drops at 5% (w/v) in 20 ml bottles. Each drop contained 1 mg of synthetic CBD in neutral oil. This was prescribed on an informed consent basis. 119 cancer patients decided to have this treatment (Table 1), and most of them had metastatic cancers. Of the 119 patients, 28 were given CBD as the only treatment.
as §1
The average dose was 10 mg twice a day. For increased tumour mass, the dose was increased, in some cases up to 30 drops twice a day (30 mg). In a number of cases where stable disease was present, the dose was reduced to five drops twice a day (5 mg). In some cases, Sativex, which is licensed for use in multiple sclerosis, was used in conjunction with CBD as a source of THC, which synergises with CBD. A fraction of the dose used for multiple sclerosis was used. […] Some of the patients reverted to Cannabis oil bought on the Internet, and following this, 80% of these cases relapsed.
(§2) The minimum duration of treatment required for CBD was six months, but many continued for longer. Less than six months appeared inadequate and had little effect, and therefore cases in which CBD was used for less than six months have been defined as un-assessable, and not included in the current cohort of 119 cases.

[3] = Side effects / tolerated dose in patients; type: in vivo, human; conditions: cancer patients, up to 30 mg twice a day; maximum tolerated dose unable to be defined
Excerpt: as §2

[4] = Glioblastoma multiforme, 7 total cases
[5] = Miscellaneous cancers, 15 total cases
[6] = Non-Hodgkin's lymphoma, 8 total cases
[7] = Non-small cell lung, 2 total cases
[8] = Total of all cancer types, 119 total cases

## C=C(C)[C@@H]1CCC(C)=C[C@H]1c1c(O)cc(CCCCC)cc1O [CBD, cannabidiol]
pERK
  pERK relative to controls: increased
[1]
  Viability of cancer cells: inactive; also recorded: unaffected
tumour; 65/female breast cancer, initially 15 cm, CBD plus half course of radiotherapy, last appointment
  Tumour diameter in left breast: treatment course. They have continued on CBD alone and on their last appointment the tumour in their left breast was 2 cm
tumour; 65/female breast cancer, initially palpable left axillary nodes, last appointment
  Axillary nodes: cm in diameter, with no palpable axillary nodes.
tumour; 68/female breast cancer with bone metastases, CBD following local radiotherapy
  Subsequent scans: subsequent scans showed stable disease. They have had no treatment other than CBD following radiotherapy.
tumour; person, anaplastic ependymoma, CBD only treatment
  Subsequent scans: disease stability
tumour; person, anaplastic ependymoma, CBD only treatment, after ten months
  Decrease of tumour volume (scan): ~60%
tumour; person, tanycytic ependymoma Grade 2, 10 mg twice a day three days on/off, six months
  Scan result: tumour reduction
[2]; 62/female breast cancer, CBD as only treatment, when first seen
  Circulating tumour cells (CTCs), first tests: tests which showed 10.6 cells per 7.5 ml. Subsequent tests 9 months later, 12 months later, two years later and
[2]; 62/female breast cancer, 9 months later
  Circulating tumour cells (CTCs): 7.3 cells/7.5 ml
[2]; 62/female breast cancer, 12 months later
  Circulating tumour cells (CTCs): 6.8 cells/7.5 ml
[2]; 67/female lobular breast cancer, 12 months later
  Circulating tumour cells (CTCs): 7.5 cells/7.5 ml
[2]; 67/female lobular breast cancer, 18 months later
  Circulating tumour cells (CTCs): 6.8 cells/7.5 ml
[2]; 67/female lobular breast cancer, 30 months later
  Circulating tumour cells (CTCs): 3.0 cells/7.5 ml
[2]; 67/female lobular breast cancer, initial
  Circulating tumour cells (CTCs), initial: method of treatment. Initial CTCs were 9.3 cells per 7.5 ml. Follow-up measurements 12 months later, 18 months
[2]; 72/male prostate cancer, initial value before CBD effect
  Circulating tumour cells (CTCs), initial: 8.1 cells/7.5 ml
[2]; breast cancer, three years later
  Circulating tumour cells (CTCs): 3.9 cells/7.5 ml
[2]; breast cancer, two years later
  Circulating tumour cells (CTCs): 5.0 cells/7.5 ml
[2]; patient prostate cancer, CBD alone 10 mg twice a day, three days on/off
  Circulating tumour cells (CTCs), first reduction: 5.9 cells/7.5 ml
Cancer patients; 62/female breast cancer, CBD only, no symptoms
  Clinical status: currently stable
Cancer patients; 65/female oesophageal cancer, CBD only treatment, expected survival of three months
  Time to death: weight. They died 14 months later.
Cancer patients; 65/female oesophageal cancer, CBD only treatment, six months later, regained weight
  Clinical condition: treatments and investigations. We last saw their six months later when they were looking well and had in fact regained
Cancer patients; Anaplastic ependymoma, 3 total cases
  Extended median survival: 3
Cancer patients; Bladder, 2 total cases
  Extended median survival: 1
  Stable disease: 1
Cancer patients; Breast, 39 total cases
  Died: 6
  Extended median survival: 8
  No effect/result: 3
  Slowed progression: 3
  Stable disease: 21
  Tumour free: 7
Cancer patients; CBD used for less than six months
  Effect of short treatment duration: little effect
Cancer patients; Colorectal, 13 total cases
  Died: 6
  Extended median survival: 9
  No effect/result: 1
  Slowed progression: 1
  Tumour free: 1
Cancer patients; DIPG, 1 total case
  Extended median survival: 1
Cancer patients; [4]
  Died: 3
  Extended median survival: 4
Cancer patients; Head and Neck, 2 total cases
  Tumour free: 1
Cancer patients; [5]
  Died: 1
  Extended median survival: 5
  No effect/result: 1
  Slowed progression: 1
  Stable disease: 6
  Tumour free: 2
Cancer patients; Neuroendocrine, 1 total case
  Stable disease: 1
Cancer patients; [6]
  Died: 1
  Stable disease: 6
  Tumour free: 1
Cancer patients; [7]
  Died: 2
  Extended median survival: 2
Cancer patients; Ovarian, 6 total cases
  Died: 3
  Extended median survival: 5
  Slowed progression: 1
Cancer patients; Pancreatic, 4 total cases
  Died: 2
  Extended median survival: 2
Cancer patients; Prostate, 16 total cases
  Died: 3
  Extended median survival: 3
  Stable disease: 10
Cancer patients; [8]
  Died: 27
  Extended median survival: 43
  No effect/result: 5
  Slowed progression: 8
  Stable disease: 45
  Tumour free: 12
Cancer patients; three days on and three days off versus continuous dose
  Clinical effectiveness of dosing pattern: more effective
[3]
  Side effects: complete absence of side effects
